According to patent US9963660B2, “Method of cleaning with enhanced bacteriostatic action using a composition of alcohol and lactate esters” (Vertec Biosolvent, Inc., priority 2015, dated 2018):

Columns and labels:
[1] = for Viscosity: @ 25 C.
From the text: Properties of solvents are often evaluated and expressed in measured and calculated values of solubility parameters and a few other physical constants.

[2] = Peanut butter removal from coated metal mesh strips (cleaning/solvating action); conditions: neat solvents, 40° C., 20 minutes dip, 90 minutes drying
From the text: Peanut butter is a complex mixture of fats, carbohydrates and proteins that are emulsified in processing equipment under controlled conditions. Because of its composition that contains all the major food groups and because the product is made by controlled food processing methods, peanut butter was chosen for an initial cleaning examination. Commercially available […]® peanut butter made by Best Foods Company was used. Commercially available metal screen mesh (size 20 mesh) was cut into small (25 mm×75 mm), equal sized strips that were dipped into heated (about 50° C.) peanut butter and then drip dried in air. […] The strips were then dried under forced air at room temperature and their weights were measured periodically. After 90 minutes of drying the test results were evaluated to determine the comparative differences between the effects of the solvent compositions. Commercial grade of ethanol is typically denatured by small quantities of additives. Ethyl acetate is an approved denaturant for ethanol and it is non-toxic for food and biological related applications. In all of the examples for this invention the ethanol used was denatured by about 5% (w/w) ethyl acetate.

[3] = test system: Listeria Monocytogenis ATCC 19115; assay: MiniTox bacteriostatic (MIC) test in microtiter plates; type: cell-based; conditions: diluted to the same extent as the blend
From the text: (§1) Methods to determine minimum inhibitory concentrations (MIC) of biocides or bacteriostatic agents that work in processing liquids to inhibit biological growth have been developed and optimized (U.S. Pat. No. 5,206,151). Typically, such MIC determinations involve (a) obtaining a known volume aliquot of the contaminated aqueous system and (b) adding thereto a known amount of an oxidation reduction indicator dye, which indicator dye is capable of reacting with dehydrogenase enzymes produced by the microbiological organisms, and also (c) adding sufficient nutrients capable of accelerating microbiological organism activity, thereby forming a reaction product between reducing enzymes and the oxidation-reduction indicator dye. Multiple aliquots of the indicator dye treated and nutrient treated, aqueous system are transferred to a microtitration plate containing multiple sample wells (d), each well containing but one of the multiple aliquots. (e) Serially diluted amounts of at least one antimicrobial agent is added to at least one column (or row) of these sample wells on the titration plate, provided that a single column (or row) is treated with only one antimicrobial agent, that at least one column (or row) is left untreated to thereby form a treated titration plate. The treated titration plate is incubated at a temperature essentially equivalent to the temperature of the contaminated aqueous system from which the aliquot was originally taken and maintained for a period of time sufficient to develop the change in the indicator dye color by the reaction of the indicator dye with reducing enzymes produced by nutrient acceleration of microbiological metabolism (f). The first change in color in dye relative to the untreated column is noted (g) to determine the minimum inhibitor concentration of antimicrobial agent that inhibits growth of microbiological organism contained in the contaminated aqueous system. Such a method is optimized under the Trademark of MiniToxTM and tests are routinely practiced and results provided by microbiological testing laboratories such as: The MicroStar Lab Ltd located at 130 Erick Street in Crystal Lake, Ill. 60014. […] This solution was kept as is at room temperature and hydrolysis of the ester continued. This solution was serially diluted with broth and media components for the MiniTox tests in microtiter plates. Two bacterial cultures Salmonella Choleraesuis ATCC 10708 and Listeria Monocytogenis ATCC 19115 were used for the studies. Bacteria of the Salmonella species are known pathogens that contaminate meat and vegetable types of food and Listeria species are known to contaminate milk and related foods.

[4] = test system: Salmonella Choleraesuis ATCC 10708; assay: as above; type: cell-based; conditions: diluted to the same extent as the blend
From the text: as §1

| SPd (Disperse solubility parameter) [1] | SPo (Hildebrand solubility parameter) [1] | SPp (Polar solubility parameter) [1] | Structure (SMILES) | SPh (hydrogen bonding parameter) [1] | Surface Tension [1] [mN/m] | Viscosity [1] [Cp] | Percent Removal [2] [%] | Bacteriostatic activity alone, diluted to the same extent [3] | Bacteriostatic activity alone, diluted to the same extent [4] |
| --- | --- | --- | --- | --- | --- | --- | --- | --- | --- |
| – | – | – | CCOC(=O)C(C)O (stereo not drawn) [Ethyl lactate] | 6.1 | 28.6 | 2.41 | 7.3 | does not exhibit bacteriostatic activity | does not exhibit bacteriostatic activity |
| 7.7 | 13.0 | 4.3 | CCO [Ethanol] | 9.5 | 22.2 | 0.43 | 20.4 | does not exhibit bacteriostatic activity | does not exhibit bacteriostatic activity |
